“Also recorded” adds a separate entry of the source.
Assays:
Nrf2 = Nrf2 reporter assay (AREc32 cell line, luciferase under control of the ARE); format: cell-based; conditions: AREc32 cells, 24 h, dose range 0 to 200 μM (FIG. 3)
Description: Activation of Nrf2 was measured using an Nrf2 reporter assay. This assay is based on the AREc32 cell line, from CRX biosciences (Dundee, Scotland), a stably transfected MCF7 (breast adenocarcinoma) cell line that contains a luciferase gene construct under the control of the ARE. Luciferase is an enzyme which digests luciferin and produces […]. Anti-oxidative molecules such as Tert-butylhydroquinone (TBHQ) induce luciferase transcription via the activation of Nrf2 that binds to ARE. Luciferase activity is determined using a luciferase kit form Promega (Madison, Wis.). The luciferase activity is proportional to the activation of Nrf2. […] The luciferase activity and the cell viability (ATP measurements) were determined using the Luciferase and Cell Titer-Glo kits from Promega. For each run the luciferase activities, measured in Relative Light Units (RLU), of all the wells were normalized with the mean of the luciferase activity of the cells only of all the plates. Among all the samples tested the normalization procedure was found not to affect the data and this observation permits the comparison of samples measured in different runs. For each sample the Nrf2 activation was calculated as follows: […] […] The luciferase content per sample allows a semi quantification of the Nrf2 activation by reflecting the amount of the Nrf2 activating molecule. […]

AREc32 cells = test: Cell viability of AREc32 cells (ATP quantification, Cell Titer-Glo); format: cell-based; conditions: 24 h
Description: The cell viability, measured by ATP quantification, is expressed as relative percentages of control (untreated) cells. The results are expressed as means of technical triplicates±SD and are representative of four independent experiments.
To determine the Nrf2 activation the samples were tested on AREC32 cells (seeded in 96 well plates) using 10 independent dilutions (1/2, 1/4, 1/6, 1/10, 1/15, 1/20, 1/25, 1/30, 1/40 and 1/50) and incubated for 24 hours at 37° C. in a 5% CO2/air incubator. The luciferase activity and the cell viability (ATP measurements) were determined using the Luciferase and Cell Titer-Glo kits from Promega.
The cell viability was also measured using a cell Titer-Glo kit (ATP quantification).

[1] = system: neuron astrocyte co-cultures; test: Neuron-astrocyte co-culture, oxidative stress induced by hydrogen peroxide, MTT assay; format: cell-based, mouse; conditions: 48 hours pre-treatment, 100 μM hydrogen peroxide 4 hours
From the text: The beneficial effect of compounds on cell survival is classically investigated by challenging the cell cultures with neurotoxic insults and measuring the resulting oxidative stress and excitotoxicity over a limited period of time (Aksenova et al., Current Neurovascular Research, 2, 73-89 (2005)). […] The model consists of primary neurons plated on glass coverslips that face astrocytes seeded on the bottom of a culture dish. The two cellular compartments are separated by paraffin beads, but released compounds (e.g., energy substrates and glutathione precursors) can freely diffuse from one compartment to the other through the culture medium. Primary cultures of mouse neurons are grown for 12 days in Neurobasal™ medium on 20 mm diameter glass coverslips. Primary cultures of mouse astrocytes are grown for 21 days in astrocytes culture medium in 35 mm diameter dishes. Two hours before initiation of the co-culture, the astrocyte medium is removed and replaced by a fresh neuronal medium. The co-culture is initiated by putting the glass coverslips bearing neurons in the dishes containing astrocyte culture so that neurons face astrocytes. […] For detection this purple product is solubilised for colorimetric quantification at 560 nm using a spectrophotometer.

[2] = background statement; cited from earlier work

Compound	Nrf2 activation (in words) (Nrf2)	Doses at which viability of AREc32 cells was not affected (AREc32 cells)	Concentration giving the strongest protective effect [1] [µM]	Protection of neurons against oxidative stress (in words) ([1]; all tested concentrations (5 μM to 30 μM) except 10 μM)	Aqueous solubility (in words) [2]
CC(=O)/C=C/C(=O)O [4-oxo-2-pentenoic acid]	activates Nrf2; also recorded: strongly activate Nrf2 in a dose dependent manner	lower than 70 μM	5	protects neuronal cells against oxidative stress; also recorded: clear and significant protection	
COc1cc(/C=C/C(=O)CC(=O)/C=C/c2ccc(O)c(OC)c2)ccc1O [curcumin]					very low aqueous solubility
O=c1c(O)c(-c2ccc(O)c(O)c2)oc2cc(O)cc(O)c12 [quercitin]					very low aqueous solubility
Oc1ccc(C=Cc2cc(O)cc(O)c2)cc1 [resveratrol]					very low aqueous solubility

Source: US9259404B2 (NESTEC S.A., priority 2012, dated 2016)
